Assay results: patent US20040152708A1, “Trans-9,10-dehydroepothilone C and D, analogs thereof and methods of making the same” (priority 2002, published 2004)
pIC50: −log10 of the molar value. Read-outs that look alike come from different tables or passages of the source.

Assays:
[1] = system: human ovarian cancer cell line SKOV-3; assay: SRB cytotoxicity assay, SKOV3; format: cell-based; settings: for pIC50: Homo sapiens, SK-OV-3, 72 h, Table 1, 3 days, SRB, read-out: IC50 SKOV3; for IC50: Table 2, as described in Example 48, read-out: IC50 (nM) Skov
Procedure: (§1) Compounds of the invention may be screened for cytotoxicity using conventional assays well known to those skilled in the art. For example, cytotoxicity of the compounds may be determined by the SRB assay as disclosed in Skehan et al., J. Natl. Cancer Inst. 82:1107-1112 (1990), which is incorporated herein by reference. In the SRB assay, the following cultured cells are trypsinized, counted and diluted to the following concentrations per 100 μl with growth medium: MCF-7, 5000; NCI/ADR-Res, 7500; NCI-H460, 5000; A549, 5000; Skov3, 7500; and SF-268, 7500. The cells are seeded at 100 μl/well in 96-well microtiter plates. Twenty-four hours later, 100 μl of a test epothilone compound of the invention (ranging in concentration from 1000 nM to 0.001 nM diluted in growth medium) is added to each well. After incubation, with the compound for a period of days, the cells are fixed with 100 μl of 10% trichloroacetic acid (“TCA”) at 4 degrees for 1 hour, and stained with 0.2% sulforhodamine B (SRB)/1% acetic acid, and the bound SRB is then extracted with 200 μl of 10 mM Tris base. The amount of bound dye is determined by OD 515 nm, which correlates to the total cellular protein contents. The data is analyzed using standard statistical methodologies (such as those available with the software sold as KALEIDA GRAPH® by Synergy Software of Reading, Pa.) and the IC50s are calculated.
(§2) Human breast carcinoma cell line MCF-7, multi-drug resistant breast carcinoma cell line NCI/ADR, were obtained from the National Cancer Institute. Human non-small cell lung cancer cell line A549 and human ovarian cancer cell line SKOV-3 were obtained from American Type Culture Collection (Manassas, Va.). All cell lines were maintained in RPMI-1640 medium (Gibco/BRL, Rockville, Md.) supplemented with 2 mM L-glutamine, 25 mM HEPES and 10% FBS (Hyclone, Logan, Utah). Cells were maintained in a humidified incubator at 37° C. in 5% CO2.
(§3) Tumor cells were seeded in 100 μl at 5000 (MCF-7), 7500 (NCI/ADR), 5000 (A549) and 7500 (SKOV3) cells per well in 96-well plates. Cells were allowed to adhere for 24 hours. Each compound ranging from 0.001 to 1000 nM in 100 μl was added to cells in duplicate wells. After 3 days, cells were fixed at 4° C. for 1 hour with 10% trichloroacetic acid and then stained with 0.2% sulforhodamine B (SRB)/1% acetic acid for 20 minutes at room temperature. The unbound dye was rinsed away with 1% acetic acid, and the bounded SRB was then extracted with 200 μl of 10 mM Tris base. The absorbance was measured at 515 nm using a 96-well microtiter plate reader (Spectra Max 250, Molecular Devices). The IC50 values were calculated using a KaleidaGraph program. The experiments were performed twice.

[2] = system: Human breast carcinoma cell line MCF-7; assay: SRB cytotoxicity assay, MCF-7; format: cell-based; settings: for pIC50: Homo sapiens, MCF7, 72 h, Table 1, 3 days, SRB, read-out: IC50 MCF-7; for IC50: Table 2, as described in Example 48, read-out: IC50 (nM) MCF-7
Procedure: as §1, §2, §3

[3] = system: multi-drug resistant breast carcinoma cell line NCI/ADR; assay: SRB cytotoxicity assay, NCI/ADR; format: cell-based, human; settings: for pIC50: Homo sapiens, NCI/ADR-RES, 72 h, Table 1, 3 days, SRB, read-out: IC50 NCI/ADR; for IC50: Table 2, as described in Example 48, read-out: IC50 (nM) NCI/ADR
Procedure: as §1, §2, §3

[4] = system: Human non-small cell lung cancer cell line A549; assay: SRB cytotoxicity assay, A549; format: cell-based; settings: for pIC50: Homo sapiens, A549, 72 h, Table 1, 3 days, SRB, read-out: IC50 A549; for IC50: Table 2, as described in Example 48, read-out: IC50 (nM) A549
Procedure: as §1, §2, §3

[5] = Compound solubility in phosphate-buffered saline; format: physicochemical; settings: aqueous buffer, kinetic from dmso stock; 5 μL of 20 mg/mL DMSO stock in 95 μL phosphate-buffered saline, 0.45 micron filter, HPLC
Procedure: Compound solubility was determined as follows: 5 μL of stock solution (at 20 mg/mL in DMSO) was added to 95 μL of phosphate-buffered saline. After being vortexed for about 10 seconds, the solution/suspension was filtered through a 0.45 micron filter and the amount of analyte was quantitated by HPLC. Solubilities (mg/mL) determined were as follows: epothilone D, <0.06; trans-9,10-dehydroepothilone D, <0.06; 21-OH-26-F3-trans-9,10-dehydroepothilone D, 0.1; 21-amino-trans-9,10-dehydroepothilone D, >0.6; 21-amino-26-F3-trans-9,10-dehydroepothilone D, >0.6; 26-F3-trans-9,10-dehydroepothilone D, <0.06; 21-OH-trans-9,10-dehydroepothilone D, 0.1; KOSN 1635, <0.02; KOSN 1632, 0.12.

[6] = Half-life in mouse plasma; settings: fresh mouse plasma
Procedure: […] At Time Zero, aliquotted 75 μl from each sample and added 150 μl of acetonitrile. Centrifuged the white precipitate at 13500 rpm for 3 minutes. Transferred all the clear supernatant into another microcentrifuge tube and repeated the centrifuging step (13500 rpm/3 min). Carefully pipetted 150 μl of the clear supernatant into labeled HPLC sample tubes and tried to avoid pipetting any protein pellets. The samples were analyzed by HPLC to measure remaining compound at each time point by comparison with authentic standards.

[7] = Half-life in human plasma; settings: fresh human plasma
Procedure: Half-lives of compounds in fresh mouse and human plasma were determined by dissolving the compounds in DMSO and adding aliquots to samples of mouse or human plasma. At Time Zero, aliquotted 75 μl from each sample and added 150 μl of acetonitrile. Centrifuged the white precipitate at 13500 rpm for 3 minutes. Transferred all the clear supernatant into another microcentrifuge tube and repeated the centrifuging step (13500 rpm/3 min). Carefully pipetted 150 μl of the clear supernatant into labeled HPLC sample tubes and tried to avoid pipetting any protein pellets. The samples were analyzed by HPLC to measure remaining compound at each time point by comparison with authentic standards.

CYP2C19 = molecular target: T1, CYP2C19 (Homo sapiens, UniProt P33261); assay: Cytochrome P450 inhibition, CYP2C19; format: in vitro ADME
T1 construct: purchased BD GenTest, Woburn, Mass

[8] = Plasma protein binding (ultrafiltration); format: in vitro ADME; settings: mouse or human plasma (species not given), 37° C.
Procedure: Plasma protein binding studies were performed as follows. Compounds were dissolved in DMSO, then diluted into either fresh or thawed samples of mouse or human plasma and incubated at 37° C. Time points of 50 μL were mixed with 100 μl of acetonitrile and centrifuged at ˜14000 rpm for 3 minutes. A 100 μL aliquot was removed from the supernatant and set aside for analysis to indicate compound in the total fraction. The remaining supernatant was transferred onto a Microcon ultrafiltration device fitted with a YM10 membrane and centrifuged to separate protein-bound material. A 50 μL aliquot of the protein-free filtrate was mixed with 100 μL of acetonitrile, centrifuged at ˜14000 rpm for 3 minutes, then 100 μL of the supernatant was collected and analyzed to determine the amount of compound not protein bound. The amount of compound in the total sample and in the protein-free fraction were determined by HPLC analysis against authentic standards.

CYP2C9 = molecular target: T2, CYP2C9 (Homo sapiens, UniProt P11712); assay: Cytochrome P450 inhibition, CYP2C9; format: in vitro ADME
T2 construct: purchased BD GenTest, Woburn, Mass

CYP3A4 = molecular target: T3, CYP3A4 (Homo sapiens, UniProt P08684); assay: Cytochrome P450 inhibition (BD GenTest kit, BFC substrate), CYP3A4; format: in vitro ADME
T3 construct: purchased BD GenTest, Woburn, Mass
Source text: Following the procedure of Examples 39 (when R=methyl) and 42 (when R=CF3), the additional compounds shown in Table 2 were made by replacing (2-(tert-butyldimethyl-silyloxy)-methylthiazol-4-yl)methyltri-n-butyl-phosphonium chloride with the corresponding phosphonium chloride. Cytotoxicity data (Table 2) was obtained as described in Example 48. Cytochrome P450 inhibition data (Table 3) was obtained using the initial rate method against BFC substrate.
Cytochrome P450 inhibition measurements were performed using a commercially-available kit (BD GenTest, Woburn, Mass.), using BFC as substrate against CYP3A4.

T2 sequence (P11712 whole entry): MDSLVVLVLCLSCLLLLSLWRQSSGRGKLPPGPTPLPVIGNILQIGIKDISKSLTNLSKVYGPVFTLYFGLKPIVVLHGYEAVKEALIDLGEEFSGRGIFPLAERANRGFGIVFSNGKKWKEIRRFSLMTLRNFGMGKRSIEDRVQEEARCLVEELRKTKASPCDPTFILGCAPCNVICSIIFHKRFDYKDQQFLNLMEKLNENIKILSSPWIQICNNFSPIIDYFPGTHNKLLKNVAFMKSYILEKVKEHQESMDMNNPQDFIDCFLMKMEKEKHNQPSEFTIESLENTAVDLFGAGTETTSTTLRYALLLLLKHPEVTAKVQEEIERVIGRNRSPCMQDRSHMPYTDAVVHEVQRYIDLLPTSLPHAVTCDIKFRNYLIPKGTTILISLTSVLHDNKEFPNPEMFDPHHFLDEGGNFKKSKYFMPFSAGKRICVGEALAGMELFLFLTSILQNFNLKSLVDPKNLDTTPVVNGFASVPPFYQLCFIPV
T1 sequence (P33261 whole entry): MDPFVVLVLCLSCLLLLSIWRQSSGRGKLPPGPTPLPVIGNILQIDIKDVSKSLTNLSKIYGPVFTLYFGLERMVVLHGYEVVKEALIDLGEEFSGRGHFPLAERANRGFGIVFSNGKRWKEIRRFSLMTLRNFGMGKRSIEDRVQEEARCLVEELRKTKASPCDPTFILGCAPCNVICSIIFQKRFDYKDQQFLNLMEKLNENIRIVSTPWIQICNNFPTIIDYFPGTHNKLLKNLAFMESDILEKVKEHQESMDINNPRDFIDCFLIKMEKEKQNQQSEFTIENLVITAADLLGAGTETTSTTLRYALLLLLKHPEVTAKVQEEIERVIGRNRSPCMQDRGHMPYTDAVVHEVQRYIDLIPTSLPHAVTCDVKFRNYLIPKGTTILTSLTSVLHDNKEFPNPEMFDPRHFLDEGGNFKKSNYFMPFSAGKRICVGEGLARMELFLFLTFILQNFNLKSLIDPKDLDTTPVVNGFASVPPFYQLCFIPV
T3 sequence (P08684 whole entry): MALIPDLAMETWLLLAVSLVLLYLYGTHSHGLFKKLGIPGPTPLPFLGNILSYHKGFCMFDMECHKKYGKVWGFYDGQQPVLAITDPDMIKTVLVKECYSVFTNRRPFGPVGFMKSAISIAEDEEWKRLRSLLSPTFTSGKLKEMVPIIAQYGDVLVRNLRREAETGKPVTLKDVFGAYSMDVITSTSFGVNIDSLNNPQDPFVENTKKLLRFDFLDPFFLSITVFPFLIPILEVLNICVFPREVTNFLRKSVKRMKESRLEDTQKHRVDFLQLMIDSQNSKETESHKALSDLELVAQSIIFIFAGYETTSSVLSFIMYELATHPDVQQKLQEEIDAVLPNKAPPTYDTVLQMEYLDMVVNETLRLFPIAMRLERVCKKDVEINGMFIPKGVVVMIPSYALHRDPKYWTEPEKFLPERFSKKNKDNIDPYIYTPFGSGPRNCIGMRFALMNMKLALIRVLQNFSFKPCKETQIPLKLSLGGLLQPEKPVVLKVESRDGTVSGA

C/C(=C\c1csc(CN)n1)[C@@H]1C/C=C(/C(F)(F)F)C/C=C/[C@H](C)[C@H](O)[C@@H](C)C(=O)C(C)(C)[C@@H](O)CC(=O)O1 [21-amino-9,10-dehydro-26-trifluoroepothilone D]
pIC50 [1]: 7.40 | pIC50 [2]: 8.01 | pIC50 [3]: 6.48 | pIC50 [4]: 7.46 | solubility [5]: > 600 µg/mL

COC(=O)c1ccc(/C=C(\C)[C@@H]2C/C=C(/C)C/C=C/[C@H](C)[C@H](O)[C@@H](C)C(=O)C(C)(C)[C@@H](O)CC(=O)O2)nc1 [KOSN-1765]
IC50 [1]: 220 nM | IC50 [2]: 44 nM | IC50 [3]: 360 nM | IC50 [4]: 350 nM

C/C1=C/C[C@@H](/C(C)=C/c2nc3ccccc3s2)OC(=O)C[C@H](O)C(C)(C)C(=O)[C@H](C)[C@@H](O)[C@@H](C)/C=C/C1 [KOSN 1635, 17-des(2-methyl-4-thiazolyl)-17-(2-benzothiazolyl)-9,10-dehydropeothilone D]
pIC50 [1]: 8.47 | half-life [6]: 58 min | pIC50 [2]: 8.96 | half-life [7]: > 1440 min | pIC50 (CYP2C19; human): 5.49 | percentage of compound protein bound [8]: 99.7% | pIC50 (CYP2C9; human): 5.39 | pIC50 [3]: 8.25 | pIC50 [4]: 8.38 | solubility [5]: < 20 µg/mL | pIC50 (CYP3A4): 5.51

COc1ccnc(/C=C(\C)[C@@H]2C/C=C(/C)C/C=C/[C@H](C)[C@H](O)[C@@H](C)C(=O)C(C)(C)[C@@H](O)CC(=O)O2)c1 [KOSN-1756]
IC50 [1]: 4 nM | IC50 [2]: 2.1 nM | pIC50 (CYP2C19): 5.72 | pIC50 (CYP2C9): 5.15 | IC50 [3]: 4.9 nM | IC50 [4]: 4 nM

C/C1=C/C[C@@H](/C(C)=C/c2cccnc2)OC(=O)C[C@H](O)C(C)(C)C(=O)[C@H](C)[C@@H](O)[C@@H](C)/C=C/C1 [KOSN-1690]
IC50 [1]: 39 nM | IC50 [2]: 35 nM | IC50 [3]: 110 nM | IC50 [4]: 38 nM

C/C1=C/C[C@@H](/C(C)=C/c2cc(C)on2)OC(=O)C[C@H](O)C(C)(C)C(=O)[C@H](C)[C@@H](O)[C@@H](C)/C=C/C1 [KOSN-1724]
IC50 [1]: 5.3 nM | IC50 [2]: 2.5 nM | pIC50 (CYP2C19): 4.96 | pIC50 (CYP2C9): 4.89 | IC50 [3]: 6.1 nM | IC50 [4]: 5.3 nM

C/C1=C/C[C@@H](/C(C)=C/c2c[nH]cn2)OC(=O)C[C@H](O)C(C)(C)C(=O)[C@H](C)[C@@H](O)[C@@H](C)/C=C/C1 [KOSN-1712]
IC50 [1]: 37 nM | IC50 [2]: 20 nM | IC50 [3]: 220 nM | IC50 [4]: 31 nM

C/C1=C/C[C@@H](/C(C)=C/c2csc(CN3CCOCC3)n2)OC(=O)C[C@H](O)C(C)(C)C(=O)[C@H](C)[C@@H](O)[C@@H](C)/C=C/C1 [KOSN-1727]
IC50 [1]: 490 nM | IC50 [2]: 390 nM | IC50 [3]: 410 nM | IC50 [4]: 420 nM

C/C1=C/C[C@@H](/C(C)=C/c2ccc3ccccc3n2)OC(=O)C[C@H](O)C(C)(C)C(=O)[C@H](C)[C@@H](O)[C@@H](C)/C=C/C1 [17-des(2-methyl-4-thiazolyl)-17-(2-quinolyl)-9,10-dehydropeothilone D]
pIC50 [1]: 7.72 | pIC50 [2]: 8.05 | pIC50 [3]: 7.62 | pIC50 [4]: 7.60

C/C1=C/C[C@@H](/C(C)=C/n2nnc3ccccc32)OC(=O)C[C@H](O)C(C)(C)C(=O)[C@H](C)[C@@H](O)[C@@H](C)/C=C/C1 [KOSN-1674]
IC50 [1]: 50 nM | IC50 [2]: 34 nM | IC50 [3]: 180 nM | IC50 [4]: 42 nM

C/C1=C/C[C@@H](/C(C)=C/c2ccc(CO)cn2)OC(=O)C[C@H](O)C(C)(C)C(=O)[C@H](C)[C@@H](O)[C@@H](C)/C=C/C1 [KOSN-1703]
IC50 [1]: 4.5 nM | IC50 [2]: 0.61 nM | pIC50 (CYP2C19): 4.99 | pIC50 (CYP2C9): 5.40 | IC50 [3]: 7.1 nM | IC50 [4]: 2.4 nM
